Experimental findings from US20050249805A1, “Compositions and methods for treating hepatitis C virus (HCV) infection” (priority 2003, published 2005) are described below.

In data set [1] the test system is carboxylesterase. Briefly: Hydrolysis of Compound III in human small intestinal microsomes, effect of BNPP. It is filed as in vitro ADME.
Data set [2] has as its system carboxylesterase. Briefly: Hydrolysis of Compound III in human colon microsomes, effect of BNPP. In kind it is in vitro ADME.
Data set [3] has as its system carboxylesterase. As to the kind of experiment: Effect of enzyme inhibitors on hydrolysis of III in human liver microsomes. The note with it: for inhibition of hydrolysis of III: highest concentrations (NaF 500 mM, BNPP 500 uM); for effect on hydrolysis of III: PMSF 20-500 uM, Proadifen 5-100 uM. It is filed as biochemical. As for the experimental part: Human male liver microsomes (Xenotech LLC, Kansas City, CS) were incubated with III in presence of increasing concentrations of known inhibitors of carboxylesterase, protease, and cytochrome P450 enzymes, followed by LC/MS/MS analysis of a parent compound and a primary metabolite aniline. […] Incubations were carried out at 37° C., at final concentrations of 0.1 M potassium phosphate buffer/0.1 mM EDTA, pH 7.4, specified concentration of inhibitor, 2 μM substrate, 0.5 mg/mL microsomal protein, 0.1% DMSO, 0.5% acetonitrile, in absence of NADPH. Incubations were started with a substrate, following 10 min preincubation of microsomal reaction mixture with inhibitors at 37° C. Reactions were stopped at specified time points with acetonitrile/methanol/DMSO (50:25:25) containing an internal standard.
For orientation: Liver microsomes are vesicles of endoplasmic reticulum, rich in cytochrome P450 enzymes.

The target of data set [4] is carboxylesterase. As to the kind of experiment: IC50 of carboxylesterase inhibitor (reduction in metabolic conversion of anti-HCV compound). It is filed as biochemical. The source says:
The suitability of a carboxylesterase inhibitor may be confirmed by the guidance provided herein and by methods well known in the art. In one embodiment, in vitro systems may be used. For example, body fluids (e.g., blood), tissue homogenates, or microsomal preparations from tissues (e.g., liver, intestine, etc.) are contacted with the anti-HCV compound in presence or absence of varying concentrations of inhibitor. Decrease in substrate concentration and/or accumulation of metabolic product (e.g., aniline metabolite) are measured by techniques that include, by way of example and not limitation, LC/MS/MS, GC/MS and/or HPLC. These initial determinations can provide an IC50 of the carboxylesterase inhibitor sufficient to affect biotransformation of the anti-HCV compounds. Moroever, use of purified carboxylesterase enzymes, cDNA expressed enzymes, cells transfected with cloned carboxylesterase genes, etc., can be used to identify the specific enzymes responsible for the biotransformation.
Generally, an inhibitor plasma concentration of 5 μM or less is a reasonable IC50 for in vivo applications.

Data set [5] in a line: Effect of BNPP pretreatment on exposure of III in mice. The note with it: mice pretreated with BNPP vs untreated.
Method: (§4) Balb/c male mice were predosed intraperitoneally with 100 mg/kg (20 mg/mL) of bis(p-nitrophenyl) phosphate (BNPP) in ethanol/polyethylene glycol (PEG400) 10:40 v/v or the vehicle, one hour before dosing with III at 1 mg/kg (1 mg/mL) by intravenous bolus in PEG400, or at 30 mg/kg (5 mL/kg) orally in TGPS/PEG400/PG/PBS.
(§5) Blood samples were collected into heparinized Microtainer tubes, spiked with 30% BNPP solution in ethanol, 10 μl/mL blood. Livers were snap frozen in liquid nitrogen. Samples were stored at −80° C. until analyzed by LC/MS/MS procedure, as described below.
(§6) The MRM mode of detection was used for LC/MS/MS analysis. Test compounds were extracted from plasma by direct protein precipitation with a mixture of acetonitrile, ethanol and dimethyl sulfoxide (DMSO) (2:1:1 v/v) and internal standard. Following vortexing and centrifugation, 10 μL of the extract was analyzed by LC-MS/MS.
(§7) Liver homogenate (20% volume in DMSO: water) was prepared using a Polytron homogenizer. Test compounds were extracted from 100 μL of the homogenized mixture as described for plasma and analyzed by LC/MS/MS.
(§8) LC/MS/MS was performed on PE-Sciex API3000 triple quadrupole mass spectrometer, using Betasil C8 column (3×50 mm, 3 μm), with mobile phase A: 0.1% formic acid in water, and B: 0.1% formic acid in acetonitrile. Multiple reaction monitoring (MRM) in the positive ionization mode and Analyst 1.1 software was used for quantitation and data acquisition.
The nature of data set [6]: Metabolic stability in human liver microsomes. In kind it is in vitro ADME. As for the experimental part: (§1) Liver microsomes prepared from human (male and/or female) or Sprague-Dawley rat (female) (Xenotech LLC, Kansas City, CS), were incubated with compound II (FIG. 3) or III (FIG. 4), followed by LC/MS/MS analysis of a parent compound and a primary metabolite aniline. Incubations were carried out at 37° C., at final concentrations of 0.1 M potassium phosphate buffer/0.1 mM EDTA, pH 7.4, 1 μM substrate, 0.5 mg/mL microsomal protein, 0.01% DMSO, 0.3% acetonitrile, in presence or absence of 1 mM NADPH. Reactions were stopped at specified time points with acetonitrile/methanol/DMSO (50:25:25) containing an internal standard.

The nature of data set [7]: Hydrolysis of III in liver microsomes of several species. In kind it is in vitro ADME, human, monkey, dog, rabbit, rat, mouse. The conditions noted are these: rates per mg protein vary with species. As for the experimental part: FIG. 4A and FIG. 4B show the stability of […] when incubated in presence of microsomes prepared from human liver (FIG. 4A) or rat liver (FIG. 4B).

Data set [8] concerns pig liver carboxylesterase (EC 3.1.1.1). Briefly: Hydrolysis of III by purified pig liver carboxylesterase. In kind it is biochemical, porcine. The note with it: enzyme concentration dependent. The protocol: (§2) The following purified enzymes were used for assays: carboxylesterase from porcine liver (EC 3.1.1.1, Sigma E3019); butyrylcholine esterase, equine serum (pseudocholinesterase EC 3.1.1.8, Sigma C1057); and acetylcholine esterase from electrical eel (EC 3.1.1.7, Sigma C2629).
(§3) Purified enzyme preparations (0.2-2.0 units/mL) were incubated 0-30 min at 37° C. in 0.1 M potassium phosphate buffer, 0.1 mM EDTA, pH 7.4 and 0.5 mg/mL of bovine serum albumin. The substrate was delivered in 0.02% DMSO and 0.6% acetonitrile. Incubations were performed for 0-30 min at 37° C., separately for each time point. The reactions were terminated by precipitation with acetonitrile/ethanol/DMSO mixture, followed by filtering and LC/MS/MS analysis. […] Initial rates of substrate disappearance or product appearance were calculated by linear regression of 5-6 separate incubations.

In data set [9] the target is T1, acetylcholinesterase (AchE: EC 3.1.1.7) (Electrophorus electricus, UniProt O42275).
T1 construct: acetylcholine esterase from electrical eel (EC 3.1.1.7, Sigma C2629); purchased Sigma C2629; host or cells: electric eel
T1 sequence (O42275 24-633): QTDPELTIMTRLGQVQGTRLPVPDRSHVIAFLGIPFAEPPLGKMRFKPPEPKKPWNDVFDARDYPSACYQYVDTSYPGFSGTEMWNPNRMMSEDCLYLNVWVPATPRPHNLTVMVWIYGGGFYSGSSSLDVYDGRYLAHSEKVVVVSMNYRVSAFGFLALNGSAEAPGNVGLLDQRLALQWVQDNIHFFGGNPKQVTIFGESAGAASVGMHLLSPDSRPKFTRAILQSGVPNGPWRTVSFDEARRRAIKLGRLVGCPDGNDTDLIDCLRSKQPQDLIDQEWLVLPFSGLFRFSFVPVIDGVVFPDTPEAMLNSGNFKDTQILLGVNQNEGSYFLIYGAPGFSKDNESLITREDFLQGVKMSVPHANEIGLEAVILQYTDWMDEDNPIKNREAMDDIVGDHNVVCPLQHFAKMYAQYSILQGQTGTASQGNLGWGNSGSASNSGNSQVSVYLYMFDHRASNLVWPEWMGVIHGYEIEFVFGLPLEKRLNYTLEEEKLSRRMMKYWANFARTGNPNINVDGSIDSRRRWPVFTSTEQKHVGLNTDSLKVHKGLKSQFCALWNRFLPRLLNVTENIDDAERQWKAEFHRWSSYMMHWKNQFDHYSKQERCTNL
Briefly: Hydrolysis of III by purified acetylcholinesterase. It is filed as biochemical, electrical eel. The protocol:
as §2, §3

The target in data set [10] is T2, butyrylcholinesterase (BuChE: EC 3.1.1.8) (Equus caballus, UniProt P81908).
T2 construct: butyrylcholine esterase, equine serum (pseudocholinesterase EC 3.1.1.8, Sigma C1057); purchased Sigma C1057; host or cells: equine serum
T2 sequence (P81908 whole entry): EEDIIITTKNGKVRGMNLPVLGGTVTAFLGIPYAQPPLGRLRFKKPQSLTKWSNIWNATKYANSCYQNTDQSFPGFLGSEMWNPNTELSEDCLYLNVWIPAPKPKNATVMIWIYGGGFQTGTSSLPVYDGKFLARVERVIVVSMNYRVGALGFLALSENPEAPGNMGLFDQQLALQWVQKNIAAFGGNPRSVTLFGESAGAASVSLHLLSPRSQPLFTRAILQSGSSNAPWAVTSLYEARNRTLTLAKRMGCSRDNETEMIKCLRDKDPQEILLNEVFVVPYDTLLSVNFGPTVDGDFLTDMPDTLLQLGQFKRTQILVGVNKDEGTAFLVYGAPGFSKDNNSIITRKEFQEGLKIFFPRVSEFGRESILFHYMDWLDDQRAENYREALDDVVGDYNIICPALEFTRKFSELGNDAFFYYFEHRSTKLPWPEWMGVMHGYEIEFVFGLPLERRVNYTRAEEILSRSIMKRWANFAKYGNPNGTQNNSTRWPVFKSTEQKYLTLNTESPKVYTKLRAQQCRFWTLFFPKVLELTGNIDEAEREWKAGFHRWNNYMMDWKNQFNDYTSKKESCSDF
As to the kind of experiment: Hydrolysis of III by purified butyrylcholinesterase. It is filed as biochemical, equine. As for the experimental part: as §2, §3

Data set [11] deals with plasma blood esterases. As to the kind of experiment: Stabilization of III in mouse blood by carboxylesterase inhibitors. It is filed as in vitro ADME. The protocol: Heparinized fresh mouse blood (1.6 mL) from […] was added to Vacutainer Tubes: Cat # 367587, lot 2079758, approx. 2 mL volume (3 mg NaF+6 mg disodium EDTA/tube) and spiked with III at 20 ng/mL blood, with concentration of NaF in blood of […]. Samples were incubated in duplicate at 37° C. up to 2 h. Control samples were incubated in eppendorf tubes without sodium fluoride. Blood concentrations of III and its aniline metabolite were assayed by LC/MS/MS by procedure described in Example 6.

The conditions of data set [12]: mouse, in vivo, po.
Method: as §4, §5, §6, §7, §8
Data set [13] is described as follows: In vivo metabolite profile of 14C-labeled II in rats. The arrangement: species or system Sprague Dawley rats. The conditions noted are these: intravenous administration, HPLC. As for the experimental part: Following administration of the compound to rats, plasma and liver were analyzed by HPLC for drug related metabolites.
Male Sprague Dawley rats were given either a single 1 mg/kg (1 mL/kg) bolus intravenous dose in 70% polyethylene glycol (PEG) 400/30% saline via a tail vein, or a single 1 mg/kg (2 mL/kg) oral dose in 4% polysorbate 80/96% saline of ^14C-labeled anti-HCV II, with radioactive dose of about 30 μCi per animal.
Groups of rats (n=2/dose route/time point) were sacrificed at specified times from 0 to 3 h after dosing. Heparinized plasma and liver were harvested and stored at −70° C. until analyzed. The plasma was assayed by liquid scintillation counting (LSC) in Beckman LS-6000LL Liquid Scintillation Counter.
Livers were homogenized in deionized water, combusted and analyzed by LSC. Portion of the homogenate was extracted by sonication with acetonitrile, centrifuged, and subjected to radioprofiling of supernatant by the Liquid Chromatography with Accurate Radioisotope Counting (LC-ARC). Agilent Series 1100 with Packard Radiomatic 150 radioactivity detector was used for analysis. Waters Spherisorb ODS1, 5 μm, 250×4.6 mm column was used, with mobile phase A: water/acetic acid/ammonium hydroxide (2000:20:20, v/v/v), B: acetonitrile. The radioactivity of peaks was calculated using ARC Data System software.

The nature of data set [14]: Metabolic stability in rat liver microsomes. It is filed as in vitro ADME, Sprague-Dawley rat. The note with it: rat liver microsomes (FIG. 4B). The protocol: as §1
The mark [15] stands for this setting: Human Intestine (pooled 2 subjects), BNPP 50 μM.
Setting [16] is: Human Intestine (pooled 2 subjects), BNPP 500 μM.

One may read the Inhibition as the percentage by which the read-out fell short of the control. Lower therefore signals little suppression. Broadly, the IC50 is the concentration at which inhibition is half-maximal. Regarding `O=[N+]([O-])c1ccc(OP(=O)(O)Oc2ccc([N+](=O)[O-])cc2)cc1` [BNPP, bis(p-nitrophenyl) phosphate], the Activity was determined as 28% in data set [1] (setting [15]); 432 pmol/min/mg in data set [1] (Human Intestine (pooled 2 subjects), BNPP 50 μM, hydrolysis of Compound III 1.8 μM); 2.6% in data set [1] (setting [16]); 39 pmol/min/mg in data set [1] (Human Intestine (pooled 2 subjects), BNPP 500 μM, hydrolysis of Compound III 1.8 μM); 75% in [2] (Subject 1, BNPP 50 μM); 192 pmol/min/mg in [2] (Subject 1, BNPP 50 μM, hydrolysis of Compound III 1.8 μM). Besides, the Activity came out at 121% in data set [2] (Subject 2, BNPP 50 μM) and 232 pmol/min/mg in data set [2] (Subject 2, BNPP 50 μM, hydrolysis of Compound III 1.8 μM). Also, the Inhibition in data set [1] (setting [15]) was 72%; in [1] (setting [16]) it was 97%; in data set [2] (Subject 1, BNPP 50 μM), 25%; in data set [2] (Subject 2, BNPP 50 μM), 0%. For the same compound, in data set [3], the “inhibition of hydrolysis of III” value is “Complete inhibition”. The same compound gave an IC50 in data set [4] of 10 to 50 µM. For the same compound, the “levels of parent compound in the liver” value in [5] is “significantly increased”.
As to `O=C(Nc1ccnc(-c2cc(-c3c(Cl)cccc3Cl)no2)c1)C(Cl)Cl` [Compound III], the Activity in [1] (Human Intestine (pooled 2 subjects) microsomes, BNPP 0 μM, substrate 1.8 μM, substrate disappearance) turned out to be 1516 pmol/min/mg; in data set [2] (Subject 1 microsomes, BNPP 0 μM, substrate 1.8 μM, substrate disappearance) it was 257 pmol/min/mg; in data set [2] (Subject 2 microsomes, BNPP 0 μM, substrate 1.8 μM, substrate disappearance), 192 pmol/min/mg. Besides, the “metabolic stability in vitro of III” value in data set [6] (human liver microsomes, absence or presence of NADPH) was “Rapid disappearance of the parent compound”. For the same compound, the “hydrolysis of III and conversion to aniline metabolite” value in [7] was “occurs in microsomes prepared from livers of human, monkey, dog, rabbit, rat, and mouse”. Besides, the “hydrolysis of III by purified enzyme” value in [8] is “efficiently hydrolyzed”; in data set [9], “not an efficient substrate”; in data set [10] it was “not an efficient substrate”. Moreover, the “stability of III in blood” value in data set [11] (absence of NaF) is “rapid decrease in the levels of compound”. The Cmax result in data set [12] was “increased”. The “bioavailability (F)” value in [12] is on record as “increased”. Besides, the circulating metabolite entry in [12] is listed as “significantly reduced”. In [12], the “plasma exposure (AUC)” value is listed as “increased”.
On to `O=C(Nc1cccc(-c2cc(-c3c(Cl)cccc3Cl)no2)c1)C(Cl)Cl` [Compound II], for which the “metabolite profile in plasma and liver” value in data set [13] is “Aniline is the major product”. Also, the “stability of II in microsomes” value in data set [6] (human liver microsomes (FIG. 4A)) and in data set [14] was “Rapid disappearance of parent compound” throughout.
In the case of `[F-].[Na+]` [NaF, Sodium fluoride], the “inhibition of hydrolysis of III” value in data set [3] is recorded as “Complete inhibition”. In addition, the “effect of inhibitor on hydrolysis of III in blood” value in data set [11] (50 mM NaF) is reported as “prevented hydrolysis”.
For `O=S(=O)(F)Cc1ccccc1` [PMSF, phenylmethanesulphonyl fluoride], the “effect on hydrolysis of III” value in data set [3] is listed as “weak inhibition”.
The same measure, in the same setting: the entry for `CCCC(C(=O)OCCN(CC)CC)(c1ccccc1)c1ccccc1` [Proadifen, proadifen] is “did not affect hydrolysis”.
